Reference: patent US9982005B2, “Macrolides and methods of their preparation and use” (President and Fellows of Harvard College, priority 2013, dated 2018)
In brackets after ≈: the same amount, converted by molar mass. Read-outs that look alike come from different tables or passages of the source.

Assays:
[1] = tested on: Spn1427 S. pneumoniae ermB positive mefA negative; test: broth dilution MIC, S. pneumoniae Spn1427; type: cell-based; conditions: Streptococcus pneumoniae
Outline: (§1)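 Values are broth dilution MICs measured according to CLSI standard procedure; the macrolide azithromycin was tested as control.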

[2] = tested on: Spn160 S. pneumoniae ermB unknown mefA positive; test: broth dilution MIC, S. pneumoniae Spn160; type: cell-based; conditions: Streptococcus pneumoniae; Spn160 S. pneumoniae ermB unknown mefA positive; read-out: MIC
Outline: as §1

H. influenzae strains = test: MIC against H. influenzae strains (Table M8); type: cell-based; conditions: Haemophilus influenzae
Outline: as §1

[3] = tested on: BS1723 B. subtilis BS168 WT wild type; test: broth dilution MIC, B. subtilis BS1723; type: cell-based; conditions: Bacillus subtilis, BS1723 B. subtilis BS168 WT wild type; read-out: MIC
Outline: as §1

[4] = tested on: Spn1537 S. pneumoniae ermB positive mefA positive; test: broth dilution MIC, S. pneumoniae Spn1537; type: cell-based; conditions: Streptococcus pneumoniae
Outline: as §1

[5] = tested on: SA1708 S. aureus ermA positive msrA negative; test: broth dilution MIC, S. aureus SA1708; type: cell-based; conditions: Staphylococcus aureus
Outline: as §1

E. coli strains = test: MIC against E. coli strains (Table M7); type: cell-based; conditions: Escherichia coli, ATCC25922, E. coli ATCC 25922
Outline: as §1

[6] = tested on: SA557 S. aureus ermA unknown msrA positive; test: broth dilution MIC, S. aureus SA557; type: cell-based; conditions: Staphylococcus aureus; SA557 S. aureus ermA unknown msrA positive; read-out: MIC
Outline: as §1

[7] = tested on: SA418 S. aureus ermA negative msrA positive; test: broth dilution MIC, S. aureus SA418; type: cell-based; conditions: Staphylococcus aureus
Outline: as §1

[8] = tested on: SA506 S. aureus ermA positive msrA unknown; test: broth dilution MIC, S. aureus SA506; type: cell-based; conditions: Staphylococcus aureus
Outline: as §1

EC878 E. coli tolC = test: broth dilution MIC, E. coli EC878; type: cell-based; conditions: Escherichia coli
Outline: as §1

[9] = tested on: HI175 H. influenzae ATCC49247; test: broth dilution MIC, H. influenzae HI175; type: cell-based; conditions: Haemophilus influenzae
Outline: as §1

EC882 E. coli imp = test: broth dilution MIC, E. coli EC882; type: cell-based; conditions: Escherichia coli
Outline: as §1

S. aureus strains = test: MIC against S. aureus strains (Table M7); type: cell-based; conditions: Staphylococcus aureus
Outline: as §1

HI281 H. influenzae = test: broth dilution MIC, H. influenzae HI281; type: cell-based; conditions: Haemophilus influenzae
Text: We have collected MIC data for a total of 50 novel macrolides that this platform has produced against over 21 unique strains of B. subtilis, E. coli, S. aureus, S. pneumoniae, and H. influenzae, including several multidrug-resistant strains, with a special focus on macrolide resistant mechanisms (vide supra). Azithromycin was included as a control macrolide. CLSI standard procedures for broth dilution MIC determination were used. […] These genotypes can be constitutive or inducible. The finding that C4-epi (unnatural) isomers of the “azaketolide” macrolide class have enhanced activities relative to C4 natural isomers is very exciting.

[10] = tested on: Spn1509 S. pneumoniae ermB positive mefA negative; test: broth dilution MIC, S. pneumoniae Spn1509; type: cell-based; conditions: Streptococcus pneumoniae; Spn1509 S. pneumoniae ermB positive mefA negative; read-out: MIC
Outline: as §1

K. pneumoniae strains = test: MIC against K. pneumoniae strains (Table M8); type: cell-based; conditions: Klebsiella pneumoniae, K. pneumoniae 10031
E. faecalis strains = test: MIC against E. faecalis strains (Table M8); type: cell-based; conditions: Enterococcus faecalis, E. faecalis 29212
[11] = tested on: Spn1533 S. pneumoniae ermB positive mefA positive; test: broth dilution MIC, S. pneumoniae Spn1533; type: cell-based; conditions: Streptococcus pneumoniae
Outline: as §1

[12] = tested on: SA183 S. aureus ermA positive msrA unknown; test: broth dilution MIC, S. aureus SA183; type: cell-based; conditions: Staphylococcus aureus
Outline: as §1

[13] = tested on: SA1707 S. aureus ermA negative msrA positive; test: broth dilution MIC, S. aureus SA1707; type: cell-based; conditions: Staphylococcus aureus
Outline: as §1

BS1725 B. subtilis ermC = test: broth dilution MIC, B. subtilis BS1725; type: cell-based; conditions: Bacillus subtilis, BS1725 B. subtilis ermC (+ery)
Outline: as §1

A. baumannii strains = test: MIC against A. baumannii strains (Table M8); type: cell-based; conditions: Acinetobacter baumannii, BAA747, A. baumannii BAA747-1
S. pneumoniae strains = test: MIC against S. pneumoniae strains (Tables M7, M8); type: cell-based; conditions: Streptococcus pneumoniae
Text: CLSI standard procedures for broth dilution MIC determination were used. […] These genotypes can be constitutive or inducible.

EC107 E. coli ATCC25922 = test: broth dilution MIC, E. coli EC107; type: cell-based; conditions: Escherichia coli, read-out: MIC
Outline: as §1

[14] = tested on: Spn 106 S. pneumonia ATCC49619; test: broth dilution MIC, S. pneumoniae Spn 106; type: cell-based; conditions: Streptococcus pneumoniae; Spn 106 S. pneumonia ATCC49619; read-out: MIC
Outline: as §1

[15] = tested on: SA101 S. aureus ATCC29213; test: broth dilution MIC, S. aureus SA101; type: cell-based; conditions: Staphylococcus aureus, ATCC29213, SA101 S. aureus ATCC29213; read-out: MIC
Outline: as §1

[16] = from CC[C@@H](O)[C@@]1(C)OC(=O)N(CCCCN=[N+]=[N-])[C@@H]1[C@@H](C)NC[C@H](C)C[C@@](C)(OC)[C@H](O[C@@H]1OC(C)CC(N(C)C)C1OC(=O)OC)[C@@H](C)C(=O)CC(=O)OC(C)(C)C; ester bond; benzene; 9.08 mM; 80.0 °C; 12.0 h
[17] = tested on: panels of Gram-positive bacteria; conditions: fluorine atom at position C2; cited from earlier work

CC[C@H]1OC(=O)C(C)(F)C(=O)[C@@H](C)[C@@H](O[C@@H]2OC(C)CC(N(C)C)C2O)[C@](C)(OC)C[C@@H](C)CN[C@H](C)[C@H]2N(CCCCn3cc(-c4cccc(N)c4)nn3)C(=O)O[C@]12C (stereo partly shown) [FSM-20720]
MIC [1]: 8 µg/mL (≈ 9.46 µM)
MIC [2]: 0.5 µg/mL (≈ 0.591 µM)
MIC (H. influenzae strains; H. influenzae 49247, read-out: MIC H. influenzae (49247)): 8 µg/mL (≈ 9.46 µM)
MIC (H. influenzae strains; H. influenzae 49766, read-out: MIC H. influenzae (49766)): 32 µg/mL (≈ 37.8 µM)
MIC [3]: 4 µg/mL (≈ 4.73 µM)
MIC [4]: > 32 µg/mL
MIC [5]: 16 µg/mL (≈ 18.9 µM)
MIC (E. coli strains): > 32 µg/mL
MIC [6]: 8 µg/mL (≈ 9.46 µM)
MIC [7]: 8 µg/mL (≈ 9.46 µM)
MIC [8]: > 32 µg/mL
MIC (EC878 E. coli tolC): 1 µg/mL (≈ 1.18 µM)
MIC [9]: 4 µg/mL (≈ 4.73 µM)
MIC (EC882 E. coli imp): 1 µg/mL (≈ 1.18 µM)
MIC (S. aureus strains; ATCC29213, S. aureus ATCC 29213, read-out: MIC S. aureus (ATCC 29213)): 4 µg/mL (≈ 4.73 µM)
MIC (S. aureus strains; S. aureus 506, read-out: MIC S. aureus (506)): > 32 µg/mL
MIC (S. aureus strains; S. aureus 1708, read-out: MIC S. aureus (1708)): 8 µg/mL (≈ 9.46 µM)
MIC (S. aureus strains; USA300, S. aureus USA300, read-out: MIC S. aureus (USA300)): 8 µg/mL (≈ 9.46 µM)
MIC (HI281 H. influenzae): 32 µg/mL (≈ 37.8 µM)
MIC [10]: 2 µg/mL (≈ 2.36 µM)
MIC (K. pneumoniae strains): 8 µg/mL (≈ 9.46 µM)
MIC (E. faecalis strains): 2 µg/mL (≈ 2.36 µM)
MIC [11]: > 32 µg/mL
MIC [12]: > 32 µg/mL
MIC [13]: 16 µg/mL (≈ 18.9 µM)
MIC (BS1725 B. subtilis ermC): > 32 µg/mL
MIC (A. baumannii strains): > 32 µg/mL
MIC (S. pneumoniae strains; S. pneumoniae 160, read-out: MIC S. pneumonae (160)): 0.5 µg/mL (≈ 0.591 µM)
MIC (S. pneumoniae strains; S. pneumoniae 1509, read-out: MIC S. pneumoniae (1509)): 8 µg/mL (≈ 9.46 µM)
MIC (S. pneumoniae strains; S. pneumoniae 1533, read-out: MIC S. pneumoniae (1533)): > 32 µg/mL
MIC (S. pneumoniae strains; S. pneumoniae 1537, read-out: MIC S. pneumoniae (1537)): > 32 µg/mL
MIC (S. pneumoniae strains; S. pneumoniae 49619, read-out: MIC S. pneumoniae (49619)): 1 µg/mL (≈ 1.18 µM)
MIC (EC107 E. coli ATCC25922): > 32 µg/mL
MIC [14]: 0.125 µg/mL (≈ 0.148 µM)
MIC [15]: 4 to 8 µg/mL (≈ 4.73 to 9.46 µM)

CC[C@H]1OC(=O)CC(=O)[C@H](C)[C@@H](O[C@@H]2OC(C)CC(N(C)C)C2OC(=O)OC)[C@](C)(OC)C[C@@H](C)CN[C@H](C)[C@H]2N(CCCCN=[N+]=[N-])C(=O)O[C@]12C (stereo partly shown)
ring closure, yield of all isomers [16]: 84%

CC[C@H]1OC(=O)[C@@](C)(F)C(=O)[C@H](C)[C@@H](O[C@@H]2O[C@H](C)C[C@H](N(C)C)[C@H]2O)[C@](C)(OC)C[C@@H](C)C(=O)[C@H](C)[C@H]2N(CCCCn3cc(-c4cccc(N)c4)nn3)C(=O)O[C@]12C [solithromycin]
increase in activity versus the non-fluorinated molecule [17]: 4- to 16 fold
